Laboratory results reported in patent US5792766A (priority 1996, dated 1998).
Where a name gives a salt, the structure may show the parent alone.

Target: GABAa receptor
Test: GABAa receptor activity: inhibition of 3H-RO15-1788 (3H-Flumazenil) binding to rat cortical tissue
Conditions: 0.5 nM 3H-RO15-1788, 30 min at 4° C.
Protocol: The pharmaceutical utility of compounds of this invention are indicated by the following assay for GABAa receptor activity.
The assay is carried out as described in Thomas and Tallman (J. Bio. Chem. 156: 9838-9842, J. Neurosci. 3:433-440, 1983). Rat cortical tissue is dissected and homogenized in 25 volumes (w/v of 0.05M Tris HCl buffer (pH 7.4 at 4° C.). The tissue homogenate is centrifuged in the cold (4° C.) at 20,000×g for 20 minutes. The supernatant is decanted and the pellet is rehomogenized in the same volume of buffer and again centrifuged at 20,000×g. The supernatant is decanted and the pellet is frozen at -20° C. overnight. The pellet is then thawed and rehomogenized in 25 volume (original w/v) of buffer and the procedure is carried out twice. The pellet is finally resuspended in 50 volumes (w/v) of 0.05M Tris HCl buffer (pH 7.4 at […]).
Incubation contain 100 of tissue homogenate, […] of radioligand (0.5 nM ^3 H-RO15-1788 [^3 H-Flumazenil] specific activity 80 Ci/mmol), drug or blocker and buffer to a total volume of […]. Incubstion are carried for 30 min at 4° C. then are rapidly filtered through GFB filters to separate free and bound ligand. Filters are washed twice with fresh 0.05M Tris HCl buffer (pH 7.4 at 4° C.) and counted in a liquid scintillation counter. 1.0 mM diazepam is added to some tubes to determine nonspecific binding. Data are collected in triplicate determinations, averaged and % inhibition of total specific binding is calculated. Total Specific Binding=Total-Nonspecific. In some case, the amounts of unlabeled drugs is varied and total displacement curves of binding are carried. Data are converted to a form for the calculation of Ki and Hill Coefficient (nH).

Structure (SMILES) | Ki
COc1ccc(-c2ncc3n2CN(C(=O)N2CCCCC2)c2ccccc2-3)cc1 [Compound 1, 3-(4-methoxyphenyl)-5,6-dihydro-6-[(1-piperidino)carbonyl]imidazo[1,5-c]quinazoline] | 6 nM
COc1ccc(-c2ncc3n2CN(C(=O)N(C)C)c2ccccc2-3)cc1 [Compound 2, 3-(4-Methoxyphenyl)-5,6-dihydro-6-[(N,N-dimethyl-amino)carbonyl]imidazo[1,5-c]quinazoline hydrochloride] | 4.7 nM
COc1ccc(-c2ncc3n2CN(C(=O)N2CCOCC2)c2ccccc2-3)cc1 [Compound 3, 3-(4-Methoxyphenyl)-5,6-dihydro-6-[(1-morpholino)-carbonyl]imidazo[1,5-c]quinazoline hydrochloride] | 2.7 nM
COc1cccc(-c2ncc3n2CN(C(=O)N2CCCCC2)c2ccccc2-3)c1 [Compound 16, 3-(3-Methoxyphenyl)-5,6-dihydro-6-[(1-piperidino)-carbonyl]imidazo[1,5-]quinazoline hydrochloride] | 17 nM
O=C(N1CCCCCC1)N1Cn2c(cnc2-c2ccccc2)-c2ccccc21 [Compound 18, 3-Phenyl-5,6-dihydro-6-[(1-hexamethyleneimino)-carbonyl]imidazo[1,5-c]quinazoline hydrochloride] | 12 nM
COc1ccc(-c2ncc3n2CN(C(C)=O)c2ccccc2-3)cc1 [Compound 49, 3-(4-methoxyphenyl)-5,6-dihydro-6-acetylimidazo[1,5-c]-quinazoline] | 101 nM
COc1ccc(-c2ncc3n2CN(C(=O)c2ccccc2)c2ccccc2-3)cc1 [Compound 53, 3-(4-Methoxyphenyl)-5,6-dihydro-6-benzoylimidazo-[1,5-c]quinazoline] | 7.8 nM
COc1ccc(-c2ncc3n2CN(C(=O)c2ccccc2)c2ccccc2-3)c(F)c1 [Compound 72, 3-(2-Fluoro-4-methoxyphenyl)-5,6-dihydro-6-benzoyl-imidazo[1,5-c]quinazoline] | 9.7 nM
CCn1c(=O)n2c(-c3ccccc3F)ncc2c2ccccc21 [Compound 76, 3-(2-Fluorophenyl)-5,6-dihydro-5-oxo-6-ethyl-imidazo[1,5-c]quinazoline] | 124 nM
